Test results reported in article PMC10229078, “In vitro effects of lapachol and β-lapachone against Leishmania amazonensis” (Brazilian Journal of Medical and Biological Research, 2023).
Where “and” joins values, the source holds several entries; their conditions need not be identical. Equal entries are not always repeated.

How the values were obtained:
[1] = tested on: L. amazonensis promastigotes; assay: Externalized phosphatidylserine, annexin V-FITC/PI; assay type: cell-based, Leishmania amazonensis; settings: lapachol 76.62 µg/mL, β-lapachone 1.63 µg/mL; for Annexin labeling (AnV+, PI-): 4 h; for Annexin labeling (AnV+, PI-), change on longer incubation: 24 h
Procedure: […] After treatment, the cells were centrifuged (901 g for 10 min) at room temperature and washed in PBS. According to the manufacturer's instructions, annexin V-FITC and PI (Sigma-Aldrich) were added. Data were acquired using the BD FacsCalibur™ flow cytometer (FL1 vs FL2) and CellQuest Pro software, with a total of 10,000 events acquired for analysis of results.

[2] = tested on: Leishmania amazonensis promastigotes; assay: Change in cell volume and morphology of the parasites (flow cytometry FSC-H/SSC-H, SEM); assay type: cell-based; settings: 24 h, lapachol 76.62 µg/mL, β-lapachone 1.63 µg/mL; for Percentage population of the lower left quadrant gate (FSC-H/SSC-H, cell volume): H2O2 2 mM, untreated 93.14%
Procedure: Promastigote forms (2×10^7 cells) of L. amazonensis untreated (negative control) or treated with 76.62 µg/mL of lapachol and 1.63 µg/mL of β-lapachone were analyzed to observe changes in cell morphology of the parasites induced by the treatment after 24 h of incubation. […] Subsequently, the parasites were analyzed using a BD FacsCalibur flow cytometer (Becton Dickinson, USA) and CellQuest Pro software (Joseph Trotter, Scripps Research Institute, USA), and 10,000 events were acquired. Dot plots were generated, the forward scatter (FSC-H) parameter was analyzed as presenting a correlation with the cell volume.
Scanning electron microscopy (SEM) also was performed to analyze morphological changes in cell surface topography. After 24 h of treatment, the parasites were centrifuged at 576 g for 10 min, and the samples were fixed in 2.5% glutaraldehyde and 0.1 M sodium cacodylate buffer. Poly-L-lysine was used to promote the adhesion of fixed parasites on coverslips. Promastigotes were dehydrated with increasing ethanol concentrations (30-100%), submitted to critical point drying, and metalized with gold for visualization on a Shimadzu 55-550 (Japan) microscope.

[3] = tested on: L. amazonensis (strains MHOM/BR/1989/ BA199); parameters: method as in ref 23 Guimarães et al.; settings: 72 h, strain MHOM/BR/1989/BA199, ref 23 Guimarães et al.; cited from earlier work
[4] = tested on: Leishmania amazonensis promastigotes; assay: Viability assay of promastigotes, XTT colorimetric method (LD50); assay type: cell-based, Leishmania amazonensis (MHOM/BR/1977/LTB0016); settings: 25°C
Procedure: The viability of L. amazonensis (MHOM/BR/1977/LTB0016) promastigotes was evaluated using the XTT colorimetric method, which consists in the XTT salt degradation by the mitochondria forming formazan crystals. Promastigote forms (2×10^7 parasites/mL) from a culture in logarithmic growth phase were incubated with lapachol and β-lapachone diluted in 199 culture medium. The drugs were diluted in series, in a ratio of two, starting from 1/2, on a 96-well cell culture plate (TPP™ test plate, Switzerland). The compounds were tested at concentrations from 204.4 to 0.40 µg/mL (lapachol) and 157.5 to 0.31 µg/mL (β-lapachone). After 24, 48, and 72 h of incubation at 25°C, 100 μL of the XTT solution (500 μg/mL) activated with PMS (50 μg/mL) were added to each well and incubated for 4 h at 37°C. The result was measured by absorbance, determined by spectrophotometry (450/650 nm filter, VersaMax™ ELISA microplate reader, USA). The lethal dose (LD50) was defined as the concentrations of the compounds that reduced survival of L. amazonensis by 50% compared to untreated parasites in culture medium. AmB (1.96 to 0.25 µg/mL) was used as positive control of leishmanicidal activity. The therapeutic selectivity index (TSI CC50/LD50) was calculated by the ratio of toxicity to macrophage vs toxicity to parasites after 24 h incubation ([28]). All assays were performed in triplicate and repeated at least three times.

[5] = tested on: Leishmania amazonensis promastigotes; assay: Promastigote growth inhibition, counting in Neubauer chamber (IC50); assay type: cell-based, Leishmania amazonensis (MHOM/BR/1977/LTB0016)
Procedure: Leishmania growth was evaluated after 24 h of incubation at 25°C with the compounds under the same conditions as previously mentioned. Then, 10 µL of the content of each well was added to a 990 µL (1/100) of formalin solution (2%), and the parasites were counted in a Neubauer chamber. The inhibitory concentration (IC50) of promastigotes was calculated by comparing with untreated promastigotes in culture medium. The results were evaluated by linear regression of the inhibition percentage. The selectivity index (SI CC50/IC50) was calculated by the ratio of toxicity concentration to macrophage vs inhibitory concentration to the parasite growth after 24 h incubation ([27]). All assays were performed in triplicate and repeated at least three times.

[6] = tested on: Peritoneal macrophages from BALB/c mice; assay: Macrophage cytotoxicity, XTT, peritoneal macrophages
Procedure: Peritoneal macrophages from BALB/c mice were obtained as described before and adjusted to 1×10^6 macrophages/mL and plated in 96-well culture plates (TPP™ test plate, Switzerland), followed by 2 h of incubation (5% CO2 at 37°C). […] Cultures were incubated for 24 h at 37°C in 5% CO2, and non-treated cultures were used as viability control. […] After 4 h of incubation in 5% CO2 at 37°C protected from light, the results were measured as absorbance, determined by spectrophotometry (450/620 nm filter, VersaMax™ ELISA microplate reader) ([28]). […] At least three experiments were performed in quadruplicate.

J774A.1 macrophages = assay: Macrophage cytotoxicity, XTT, J774A.1
[7] = tested on: Leishmania amazonensis promastigotes; assay: Mitochondria membrane potential (ΔΨm), Rh123 flow cytometry; assay type: cell-based; settings: for Reduction in ΔΨm: lapachol 76.62 µg/mL, β-lapachone 1.63 µg/mL, H2O2 2 mM; for Variation Index (VI) of Rh123 fluorescence, (MT−MC)/MC: lapachol 76.62 μg/mL, β-lapachone 1.63 μg/mL, PC 2 mM
Procedure: The ΔΨm was determined using on BD FacsCalibur™ flow cytometer and CellQuest Pro software, with a total of 10.000 events acquired, using a mitochondrial-specific green-fluorescent dye Rh123 ([31]). Briefly, L. amazonensis (2×10^7 parasites/mL) were incubated with lapachol (76.62 µg/mL) and β-lapachone (1.63 µg/mL) for 1, 4, and 24 h at 25°C. After washed with PBS, the parasites were incubated with 5 μg/mL Rh123 for 15 min. After the incubation time, the cells were washed and suspended in PBS for additional incubation of 30 min for analysis. The percentage of fluorescence of Rh123, was determined by the (MT/MC)*100 equation, with MT representing the median fluorescence of the treated parasites and the MC the median fluorescence of negative controls. Alteration in ΔΨm was quantified using an index of variation (IV) obtained by the equation IV = (MT - MC)/MC, where negative IV values correspond to depolarization of the mitochondrial membrane. H2O2 (2 mM) was used as a positive control ([32]).

## 4-hydroxy-3-(3-methylbut-2-enyl)naphthalene-1,2-dione [lapachol]
[1]
  Annexin labeling (AnV+, PI-): 8.57%
  Annexin labeling (AnV+, PI-), change on longer incubation: not possible to observe the increase
[2]
  Morphological changes of promastigotes (SEM, microscopy): loss of cell volume, rounder shape, flagellar alterations, and cellular shrinkage
  Percentage population of the lower left quadrant gate (FSC-H/SSC-H, cell volume): 82.82%
[3]
  IC50: 102 µM
[4]; 24 h incubation
  Promastigotes LD50: 75.60 µg/mL
[4]; 24 h incubation, listed as Lapachol (1)
  Promastigotes LD50: 75.60 ± 6.12 µg/mL
[4]; 48 h incubation
  Promastigotes LD50: 72.82 µg/mL and 72.82 ± 12.99 µg/mL
[4]; 72 h incubation
  Promastigotes LD50: 58.85 µg/mL and 58.85 ± 6.43 µg/mL
[5]; 24 h, value in µM
  IC50: 316 µM
[5]; 24 h incubation, growth inhibition by counting
  Promastigotes IC50: 76.62 ± 1.21 µg/mL
[6]; peritoneal macrophages, 24 h
  Murine macrophage cytotoxicity CC50: 41.14 ± 2.17 µg/mL
J774A.1 macrophages; J774A.1, 24 h
  J774A.1 macrophage cytotoxicity CC50: 26.66 ± 8.69 µg/mL
[7]; 1 h
  Reduction in ΔΨm: 44%
  Variation Index (VI) of Rh123 fluorescence, (MT−MC)/MC: -0.44
[7]; 4 h
  Reduction in ΔΨm: 69%
  Variation Index (VI) of Rh123 fluorescence, (MT−MC)/MC: -0.69
[7]; 24 h
  Reduction in ΔΨm: 30%
  Variation Index (VI) of Rh123 fluorescence, (MT−MC)/MC: -0.30

## CC1(C)CCC2=C(O1)c1ccccc1C(=O)C2=O [β-lapachone, 2,2-dimethyl-3,4-dihydrobenzo[h]chromene-5,6-dione]
[1]
  Annexin labeling (AnV+, PI-): 9.03%
  Annexin labeling (AnV+, PI-), change on longer incubation: not possible to observe the increase
[2]
  Morphological changes of promastigotes (SEM, microscopy): loss of cell volume, rounder shape, flagellar alterations, and cellular shrinkage
  Percentage population of the lower left quadrant gate (FSC-H/SSC-H, cell volume): 62.35%
[3]
  IC50: 1.39 µM
[4]; 24 h incubation
  Promastigotes LD50: 0.65 µg/mL and 0.65 ± 0.18 µg/mL
[4]; 24 h incubation, listed as β-lapachone (2)
  Promastigotes LD50: 0.65 ± 0.18 µg/mL
[4]; 48 h incubation
  Promastigotes LD50: 1.24 µg/mL and 1.24 ± 0.19 µg/mL
[4]; 72 h incubation
  Promastigotes LD50: 0.71 µg/mL and 0.71 ± 0.03 µg/mL
[5]; Leishmania amazonensis, 24 h, value in µM
  IC50: 6.73 µM
[5]; Leishmania amazonensis, 24 h incubation, growth inhibition by counting
  IC50: 1.63 ± 0.09 µg/mL
[6]; murine macrophage CC50 / promastigote IC50, 24 h
  Selectivity index (SI CC50/IC50): 1.97
[6]; murine macrophage CC50 / promastigote LD50, 24 h
  Therapeutic selectivity index (TSI CC50/LD50): 4.94
[6]; murine macrophages
  times more selective than lapachol for Leishmania death (TSI): 9.15 times
  times more selective than lapachol for inhibiting the growth of Leishmania culture (SI): 3.65 times
J774A.1 macrophages; J774A.1 macrophage CC50 / promastigote IC50, 24 h
  Selectivity index (SI CC50/IC50): 1.95
J774A.1 macrophages; J774A.1 macrophage CC50 / promastigote LD50, 24 h
  Therapeutic selectivity index (TSI CC50/LD50): 4.89
J774A.1 macrophages; J774A.1 macrophages
  times more selective than lapachol for Leishmania death (TSI): 14 times
  times more selective than lapachol for inhibiting the growth of Leishmania culture (SI): 5.6 times
[7]; 1 h
  Reduction in ΔΨm: 15%
  Variation Index (VI) of Rh123 fluorescence, (MT−MC)/MC: -0.15
[7]; 4 h
  Reduction in ΔΨm: 54%
  Variation Index (VI) of Rh123 fluorescence, (MT−MC)/MC: -0.54
[7]; 24 h
  Reduction in ΔΨm: 98%
  Variation Index (VI) of Rh123 fluorescence, (MT−MC)/MC: -0.98
